From patent US8017350B2, “Glimepiride- and insulin-induced glycosylphosphatidylinositol-specific phospholipase C regulation” (Sanofi-Aventis Deutschland GmbH, priority 2004, dated 2011)
pIC50: −log10 of the molar value.

Assays:
rat adipocyte GPI-PLC = experiment: adipocyte GPI-PLC assay (plasma membranes or hc/lcDIGs, AChE substrate, TX-114 partitioning); assay type: biochemical; conditions: at the highest concentration tested, only
Procedure: (§1) GPI-PLD (rat serum) was assayed according to “Hari et al. (1997) Biochim. Biophys. Acta 1355: 293-302” by incubation with 10 μl of human placental aP solution (100 U/ml in 10 mM Hepes/NaOH, pH 7.0, 150 mM NaCl) in 100 μl of 200 mM Tris/maleate (pH 7.0) and 1% Nonidet P-40 for 10 min at 37° C. and subsequent termination of the reaction by addition of 0.4 ml of ice-cold stop buffer (10 mM Hepes/NaOH, pH 7.0, 150 mM NaCl, 0.1 mM MgCl2 and 0.01 mM zinc acetate). GPI-PLC (T. brucei) was assayed as described in “Mensa-Wilmot et al. (1995) Methods Enzymol. 250: 641-655” by incubation with 5 μl of human placental aP solution (see above) in 50 μl of 50 mM Tris/HCl (pH 8.0), 0.25% Nonidet P-40 and 5 mM EDTA for 30 min at 37° C. and subsequent termination of the reaction by addition of 0.45 ml of stop buffer. PI-PLC (B. cereus) and adipocyte GPI-PLC (5-25 μg plasma membranes or hc/lcDIGs) were assayed by incubation with 10 μl of bovine erythrocyte acetylcholinesterase (AChE) solution (12 U/ml in 10 mM Tris/HCl, pH 7.4, 144 mM NaCl, 0.1% TX-100) in 100 μl of 20 mM Hepes/KOH (pH 7.8), 144 mM NaCl, 0.1% TX-100, 0.2 mM MgCl2 for 1 h at 25° C. and subsequent termination by adding 5 μl of glacial acetic acid and then 0.4 ml of 10 mM Tris/HCl (pH 7.4), 144 mM NaCl. Each reaction mixture was subjected to TX-114 partitioning (see below).
(§2) Pelleted hc/lcDIGs (10-50 μg protein) or (G)PI-PLC reaction mixtures (0.5 ml) were separated into amphiphilic and hydrophilic proteins using partitioning between TX-114-enriched and depleted phases according to “Bordier, C., (1981) J. Biol, Chem. […]” by suspending in 1 ml of ice-cold TX-114 (1%), 25 mM Tris/HCl (pH 7.4), 144 mM NaCl or mixing with 0.5 ml of ice-cold TX-114 (2%), respectively. After incubation for 1 h on ice, the mixture was layered onto a cushion of 0.4 ml of 0.25 M sucrose and 25 mM Tris/HCl (pH 7.4) on ice. Phase separation was induced by warming up to 37° C. and subsequent centrifugation (10,000×g, 1 min). After re-extraction of the lower TX-114-enriched phase, aliquots of the pooled upper TX-114-depleted phase were measured for 5′-Nuc, aP and AChE activity or precipitated (15 polyethylene glycol 4000) for SDS-PAGE analysis.
Table 1: GPI-PLC of hcDIGs from rat adipocytes, GPI-PLC from T. brucei and PI-PLC from B. cereus were incubated with solubilized and partially purified bovine erythrocyte AChE or human placental aP in the absence or presence of increasing concentrations (0.05 μM-1 mM) of the inhibitors indicated under appropriate conditions (see Materials and Methods). Cleavage rate was calculated from the amount of hydrophilic AChE and aP activity recovered with the TX-114-depleted phase upon TX-114 partitioning. […]

GPI-PLC (T. brucei) = biological target: T1, GPI-PLC (T. brucei) (Trypanosoma brucei brucei, UniProt P09194); experiment: GPI-PLC (T. brucei) assay, human placental aP substrate, TX-114 partitioning; assay type: biochemical
T1 construct: purchased Oxford Glycosystems (Oxford, UK)
T1 sequence (P09194 whole entry): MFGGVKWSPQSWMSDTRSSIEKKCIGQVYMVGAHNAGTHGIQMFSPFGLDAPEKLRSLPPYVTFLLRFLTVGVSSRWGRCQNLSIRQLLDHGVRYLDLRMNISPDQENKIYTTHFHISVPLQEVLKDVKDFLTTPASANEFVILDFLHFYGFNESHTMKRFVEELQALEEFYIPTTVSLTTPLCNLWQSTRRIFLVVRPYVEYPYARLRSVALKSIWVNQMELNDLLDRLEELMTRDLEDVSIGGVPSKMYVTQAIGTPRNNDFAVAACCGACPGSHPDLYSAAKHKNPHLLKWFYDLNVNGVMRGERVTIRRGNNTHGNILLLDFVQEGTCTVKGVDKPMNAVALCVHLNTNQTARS
Procedure: as §1, §2
(§3) Table 1: GPI-PLC of hcDIGs from rat adipocytes, GPI-PLC from T. brucei and PI-PLC from B. cereus were incubated with solubilized and partially purified bovine erythrocyte AChE or human placental aP in the absence or presence of increasing concentrations (0.05 μM-1 mM) of the inhibitors indicated under appropriate conditions (see Materials and Methods). Cleavage rate was calculated from the amount of hydrophilic AChE and aP activity recovered with the TX-114-depleted phase upon TX-114 partitioning. Means+SD from at least 3 independent incubations with partitioning/enzyme assays in quadruplicate are given. n.a., not applicable.
(§4) Purified (G)PI-PLC/D from B. cereus, rat serum and T. brucei as well as total plasma membranes (PM) and hc/lcDIGs prepared from isolated rat adipocytes were incubated (10 min, 30° C.) with increasing concentrations of GPI-2350 and then assayed for amphiphilic-to-hydrophilic conversion of AChE and aP by TX-114 partitioning (see Materials and Methods). The lipolytic activity was calculated as % of the control reaction in the absence of GPI-2350 (set at 100%). Means+SD of at least 4 independent incubations with AChE and aP activity measurements in triplicate each are given.

PI-PLC (B. cereus) = biological target: T2, PI-PLC (B. cereus) (Bacillus cereus, UniProt P14262); experiment: PI-PLC (B. cereus) assay, AChE substrate, TX-114 partitioning; assay type: biochemical; conditions: read-out: inhibition % at 1 mM
T2 construct: purchased SigmalAldrich (Deisenhofen, Germany)
T2 sequence (P14262 32-329 limits assumed): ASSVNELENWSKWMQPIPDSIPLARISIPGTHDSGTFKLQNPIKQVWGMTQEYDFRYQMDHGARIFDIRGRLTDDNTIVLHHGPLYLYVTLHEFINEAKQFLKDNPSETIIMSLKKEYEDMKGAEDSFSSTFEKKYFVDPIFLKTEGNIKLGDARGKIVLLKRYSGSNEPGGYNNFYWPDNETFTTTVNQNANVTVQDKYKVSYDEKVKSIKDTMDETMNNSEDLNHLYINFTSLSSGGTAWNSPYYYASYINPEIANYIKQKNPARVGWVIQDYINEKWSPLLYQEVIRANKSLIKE
Procedure: as §1, §2, §3, §4

isolated rat adipocytes = experiment: glucose transport assay (2-deoxy-D-[3H]glucose); assay type: cell-based
Procedure: (§5) Glucose transport was determined as described in “Müller, G. et al., (1994) J. Cell Biol. 126: 1267-1276” by incubation of 10,000-20,000 washed adipocytes with 2-deoxy-D[2,6-^3H]glucose at 50 μM final conc. (0.33 μCi/ml) in 50-μl portions for 20 min at 37° C. in the absence or presence of 20 μM cytochalasin B.
(§6) Table 3: Isolated rat adipocytes were incubated in the presence of methyl-β-cyclodextrin (m-β-CD, 10 mM, 50 min), CBDP (300 μM, electroporation, followed by washing and subsequent incubation for 30 min), PIG41 (10 μM, 15 min), sodium orthovanadate (1 mM, 15 min), trypsin (10 μg/ml, 15 min followed by treatment with 0.5 M NaCl and subsequent washing) and N-ethylmaleimide (1 mM, 5 min followed by addition of DTT). After addition of GPI-2350 (50 μM final conc.) to one half of the adipocyte suspension and further incubation (60 min, 37° C.), portions of the cells were assayed for 5′-Nuc activity in the isolated IcDIGs. The increase in 5′-Nuc during the basal incubation was set at 100 arb. units. Other portions of the cells (after 15 min incubation) were assayed for glucose transport which was set at 100 arb. units for the basal incubation. Means+SD of at least 3 independent cell incubations with activity measurements in triplicate each are given.
(§7) FIG. 8: Effect of GPI-2350 on the glimepiride/insulin-induced metabolic activity. Isolated rat adipocytes were treated (5 min, 37° C.) without or with GPI-2350 (Panel A, 50 μM; Panel B, increasing conc.; Panel C, 5 μM, 50 μM) and then incubated (15 min, 37° C.) in the absence or presence of insulin (Ins, 10 nM) or glimepiride (Gli, 20 μM or increasing conc.) as indicated. The adipocytes were then assayed for glucose transport and isoproterenol-induced lipolysis. The activity is given relative to the absence of GPI-2350 in the control reaction (Panels A, basal) or in the insulin- and glimepiride-stimulated state (Panels B and C, set at 100). Means+SD of at least 5 independent cell incubations with activity measurements in triplicate each are given.

[1] = test system: 5′-Nuc in isolated rat adipocytes; experiment: 5′-Nuc translocation to lcDIGs induced by insulin-mimetic stimuli; assay type: cell-based
Procedure: as §6

[2] = test system: patients with type 2 diabetes; conditions: cited from earlier work
5'-Nuc, rat adipocytes = experiment: 5'-Nuc translocation to lcDIGs induced by insulin-mimetic stimuli; assay type: cell-based; conditions: for Increase in 5′-Nuc at lcDIGs: basal set at 100
From the text: Finally, the involvement was investigated of the GPI-PLC in signaling pathways of insulin-mimetic stimuli other than glimepiride, which are either dependent on or independent of the redistribution of GPI-proteins within DIGs. […] This is in agreement with their modes of action, the well-known inhibition of insulin receptor and IRS-1 dephosphorylation by the tyrosine phosphatase inhibitor, vanadate and the direct stimulation of pp59^Lyn and IRS-1 tyrosine phosphorylation by the CBDP.
as §6

[3] = test system: glucose transport, rat adipocytes; experiment: Glucose transport in rat adipocytes; assay type: cell-based; conditions: for Glucose Transport: basal set at 100; for glucose transport (in words): insulin-mimetic stimuli
Procedure: as §5
Subsequently, we studied whether the differential effects of GPI-PLC inhibition on IRS-1 tyrosine phosphorylation in response to insulin and glimepiride is reflected in their metabolic activity in insulin target cells. For this, isolated rat adipocytes were pretreated with GPI-2350 prior to challenge with either stimulus, and then assayed for glucose transport and isoproterenol-induced lipolysis (FIG. 8). […] These differential effects of GPI-PLC inhibition were confirmed by analysis of the effect of GPI-2350 on the inhibition of isoproterenol-induced lipolysis by glimepiride and insulin when measured as release of NBD-FA instead of glycerol from rat adipocytes prelabeled with this fluorescent fatty acid derivative (FIG. 9).
as §6, §7

[4] = +GPI-2350 (50 μM final conc., 15 min)
[5] = +GPI-2350 (50 μM final conc., 60 min)

For `CCCCCCCCCCCCP(=O)(O)O[C@H]1[C@H](O)[C@@H](O)[C@H](O)[C@@H](O)[C@@H]1F` [GPI-1793, 2-deoxy-2-fluoro-scyllo-inositol-1-O-dodecyl-phosphonic acid], the “effect on the adipocyte GPI-PLC” value (rat adipocyte GPI-PLC) was “moderate”.

With `CCCCCCCCCCCCP(=O)(OC)O[C@@H]1[C@H](O)[C@H](O)[C@@H](O)[C@H](O)[C@H]1O` (stereo partly shown) [GPI-2349, myo-inositol-1-O-dodecylphosphonic acid methylester] the “effect on the adipocyte GPI-PLC” value (rat adipocyte GPI-PLC) was “very moderate”, the pIC50 (GPI-PLC (T. brucei); IC50, Table 1, inhibitor 0.05 μM-1 mM) was 3.41 to 3.51 and the inhibition at 1000 µM (GPI-PLC (T. brucei); read-out: inhibition % at 1 mM) was 66%. The inhibition at 1000 µM (PI-PLC (B. cereus)) was 24%.

In the case of `CCN1C(=O)C=CC1=O` [N-ethylmaleimide], the “Glucose Transport (basal set at 100 arb. units)” value (isolated rat adipocytes; [4]) was 288 + 40 arb. units, the “Glucose Transport (basal set at 100 arb. units)” value (isolated rat adipocytes; −GPI-2350) was 308 + 33 arb. units and the “Increase in 5′-Nuc at lcDIGs (basal set at 100 arb. units)” value (from here on “Increase … (basal set at 100 arb. units)”) [1, 5] was 319 + 52 arb. units. For the same compound, the “Increase … (basal set at 100 arb. units)” value ([1]; −GPI-2350) was 292 + 60 arb. units.

In the case of `CCC1=C(C)CN(C(=O)NCCc2ccc(S(=O)(=O)NC(=O)N[C@H]3CC[C@H](C)CC3)cc2)C1=O` [glimepiride], the effects vs. gliclazide ([2]; 14-week study) is given as “no differences between their effects”, the “rate of blood glucose reduction vs. glipizide” value ([2]; first few weeks of treatment) is given as “more rapidly than glipizide” and the “effects on cardiovascular variables” value ([2]; human, in vivo) is given as “fewer and less severe effects on cardiovascular variables than glibenclamide”. The “pharmacokinetics in elderly, renal or liver disease” value ([2]; human, in vivo) was “mainly unaltered” and the “efficacy of glimepiride plus insulin” value ([2]; secondary sulphonylurea failure, fasting glucose target ≦7.8 mmol/L) was “as effective as insulin plus placebo”.

For `[Na+].[Na+].[Na+].[O]=[V]([O-])([O-])[O-]` [sodium orthovanadate], the “5'-Nuc at lcDIGs (in words)” value (5'-Nuc, rat adipocytes) was “without concomitant induction of 5′-Nuc translocation to IcDIGs”, the “Increase in 5′-Nuc at lcDIGs” value (5'-Nuc, rat adipocytes; +GPI-2350 (50 μM)) was 105 + 34 arb. units and the “Increase in 5′-Nuc at lcDIGs” value (5'-Nuc, rat adipocytes; −GPI-2350) was 93 + 38 arb. units. The “Glucose Transport (basal set at 100 arb. units)” value (isolated rat adipocytes; [4]) was 673 + 45 arb. units, the “Glucose Transport (basal set at 100 arb. units)” value (isolated rat adipocytes; −GPI-2350) was 707 + 51 arb. units and the “Glucose Transport” value ([3]; +GPI-2350 (50 μM)) was 673 + 45 arb. units. The “glucose transport (in words)” value [3] was “stimulated glucose transport”, the “Glucose Transport” value ([3]; −GPI-2350) was 707 + 51 arb. units and the “Increase … (basal set at 100 arb. units)” value [1, 5] was 105 + 34 arb. units. For the same compound, the “Increase … (basal set at 100 arb. units)” value ([1]; −GPI-2350) was 93 + 38 arb. units.

With “methyl-β-cyclodextrin [m-β-CD] [listing 1 of 2 here]” the “Glucose Transport (basal set at 100 arb. units)” value (isolated rat adipocytes; [4]) was 249 + 18 arb. units, the “Glucose Transport (basal set at 100 arb. units)” value (isolated rat adipocytes; −GPI-2350) was 289 + 13 arb. units and the “Increase … (basal set at 100 arb. units)” value [1, 5] was 539 + 104 arb. units. The “Increase … (basal set at 100 arb. units)” value ([1]; −GPI-2350) was 595 + 128 arb. units.

For “methyl-β-cyclodextrin [m-β-CD] [listing 2 of 2 here]”, the “5'-Nuc at lcDIGs (in words)” value (5'-Nuc, rat adipocytes) was “pronounced increases”, the “Increase in 5′-Nuc at lcDIGs” value (5'-Nuc, rat adipocytes; +GPI-2350 (50 μM)) was 539 + 104 arb. units and the “Increase in 5′-Nuc at lcDIGs” value (5'-Nuc, rat adipocytes; −GPI-2350) was 595 + 128 arb. units. For the same compound, the “Glucose Transport” value ([3]; +GPI-2350 (50 μM)) was 249 + 18 arb. units, the “glucose transport (in words)” value [3] was “glucose transport activation” and the “Glucose Transport” value ([3]; −GPI-2350) was 289 + 13 arb. units.
